Data published in PubChem BioAssay (NCI).
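Five concentrations, 48 hours, 96-well plates. GI50 = concentration required for 50% inhibition of growth. TGI denotes the concentration required for complete inhibition of growth.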

Assays:
Assay in all cases: inhibition of tumour cell growth, NCI panel, 48 h
NCI/ADR-RES ovarian = system: NCI/ADR-RES ovarian
NCI-H226 lung = system: NCI-H226 lung
MDA-MB-231 breast = system: MDA-MB-231 breast
UACC-62 melanoma = system: UACC-62 melanoma
SF-268 CNS = system: SF-268 CNS
K-562 leukemia = system: K-562 leukemia
UO-31 renal = system: UO-31 renal
ACHN renal = system: ACHN renal
786-0 renal = system: 786-0 renal
HOP-92 NSCLC = system: HOP-92 NSCLC

| SMILES | GI50 (NCI/ADR-RES ovarian) | TGI (NCI/ADR-RES ovarian) | TGI (NCI-H226 lung) | GI50 (MDA-MB-231 breast) | GI50 (UACC-62 melanoma) | TGI (UACC-62 melanoma) | GI50 (SF-268 CNS) | TGI (SF-268 CNS) | GI50 (K-562 leukemia) | TGI (K-562 leukemia) | GI50 (UO-31 renal) | TGI (UO-31 renal) | GI50 (ACHN renal) | TGI (ACHN renal) | GI50 (786-0 renal) | TGI (786-0 renal) | GI50 (HOP-92 NSCLC) | TGI (HOP-92 NSCLC) | GI50 (NCI-H226 lung) | TGI (MDA-MB-231 breast) |
| --- | --- | --- | --- | --- | --- | --- | --- | --- | --- | --- | --- | --- | --- | --- | --- | --- | --- | --- | --- | --- |
| CCC1=C[C@@H]2CN(C1)Cc1c([nH]c3ccccc13)[C@@](C(=O)OC)(c1cc3c(cc1OC)N(C=O)[C@H]1[C@@](O)(C(=O)OC)[C@H](OC(C)=O)[C@]4(CC)[C@@H]5C[C@@H]5CN5CC[C@]31[C@@H]54)C2 | 0.632 µM | > 6.25 µM | > 6.25 µM | 0.00112 µM | < 0.000625 µM | > 6.25 µM | 0.00111 µM | > 6.25 µM | < 0.000625 µM | > 6.25 µM | 0.173 µM | > 6.25 µM | 0.0315 µM | > 6.25 µM | 0.00587 µM | > 3.19 µM | 0.00629 µM | 0.226 µM |  |  |
| COc1c(C)c2c(c(O)c1C/C=C(\C)CCC(=O)OCCN1CCOCC1)C(=O)OC2 | 0.471 µM | > 100 µM | > 100 µM | 3.48 µM | 0.354 µM | > 100 µM | 0.532 µM | > 100 µM | 0.151 µM | > 100 µM | 0.599 µM | > 100 µM | 0.458 µM | > 100 µM | 0.385 µM | > 100 µM | 5.18 µM | > 100 µM | 0.581 µM | > 100 µM |
| O=C(Nc1ccc(-n2cc(-c3ccncc3)c(-c3ccc(Cl)c(O)c3)n2)cc1)Nc1cc(C(F)(F)F)cc(C(F)(F)F)c1 | 2.22 µM | 5.6 µM | 10.6 µM | 2.11 µM | 2.23 µM | 5.37 µM | 1.62 µM | 3.27 µM |  |  | 1.55 µM | 3.93 µM | 2.92 µM | 10.3 µM | 1.8 µM | 3.72 µM | 1.34 µM | 3.99 µM | 2.45 µM | 4.93 µM |
| O=C1C(=Cc2ccco2)C(=O)C2CCCCC12 (centres undefined) |  | > 100 µM | > 100 µM |  |  | > 100 µM |  | > 100 µM |  | 73.2 µM |  |  |  | > 100 µM |  | > 100 µM |  | > 100 µM |  | > 100 µM |
| COc1ccc(C2=NN(C(=O)COc3ccc(Cl)cc3)C(O)(c3cc(F)c(Cl)cc3Cl)C2)cc1OC (centres undefined) | 2.94 µM | 8.73 µM | 8.24 µM | 2.41 µM | 5.6 µM | 18.7 µM | 3.91 µM | 17.4 µM | 1.55 µM | 15.2 µM | 2.08 µM | 5.14 µM | 1.63 µM | 3.28 µM | 3.31 µM | 8.9 µM | 2.31 µM | 13.2 µM | 2.84 µM | 6.53 µM |
| OC(C1=C/C(=C\c2ccncc2)c2ccccc21)c1ccncc1 (centres undefined) |  | > 75 µM | 31.1 µM |  |  | 24 µM |  | 57.3 µM |  | 28.1 µM |  | 28.2 µM |  | 53.4 µM |  | 30.3 µM |  | 49.7 µM |  | 23.4 µM |
| CCN1C(=O)N(CC)C2C1NN=c1s/c(=C3\C(=O)N(CC(C)C)c4ccccc43)c(=O)n12 (centres undefined) | 0.479 µM | > 30.4 µM | > 100 µM | 2.05 µM | 0.603 µM | 65.5 µM | 1.32 µM | > 59.9 µM | 0.429 µM | > 100 µM | 0.869 µM | > 100 µM | 0.723 µM | > 45 µM | 1.02 µM | 26.7 µM | 4.04 µM | > 64.1 µM | 2.39 µM | > 30.6 µM |
| COc1cc(NC(=O)c2cc(OC)c3ccn(C)c3c2)cc2c1C[C@]1(C)CC[C@@H](O)C(C)(C)[C@H]1O2 | 29.3 µM | > 100 µM | > 100 µM | 7.73 µM | 4.31 µM | 49.6 µM | 9.09 µM | > 100 µM | 3.82 µM | 39.3 µM | 2.46 µM | 5.78 µM | 5.31 µM | > 100 µM | 1.29 µM | 4.08 µM | 4.11 µM | 32.3 µM | 26.5 µM | 41.8 µM |
| CCN(CC)CCOc1ccc(Nc2ncc3cc(-c4ccc(O)cc4)c(=O)n(C)c3n2)cc1 | 12.7 µM | 41.5 µM | 22.6 µM | 1.17 µM | 17.5 µM | 41 µM | 1.19 µM | 20.9 µM | 0.039 µM |  | 0.0396 µM | 1.6 µM | 0.0618 µM | 17.5 µM | 0.391 µM | 2.65 µM | 12.9 µM | 31.1 µM | 4.61 µM | 7.36 µM |
| C/C=C(\C)C(=O)N[C@H]1[C@@H](OC(C)=O)C[C@]2(C)C3CC[C@@]4(C)C(CC[C@@H]4C(C)N(C)C)C3CCC2[C@H]1O (some centres undefined) | 9.79 µM | 30.3 µM | 22 µM | 3.23 µM | 1.91 µM | 4.13 µM | 2.9 µM | 13.3 µM | 1.32 µM | 5.02 µM | 3.16 µM | 15.2 µM | 5.74 µM | 17.9 µM | 5.22 µM | 16.3 µM | 1.04 µM | 15.5 µM | 5.53 µM | 10.7 µM |
| Cn1ccc2c(NCCN)c3c(c(NCCN)c21)C(=O)c1ccccc1C3=O | 8.04 µM | 26.7 µM | 5.8 µM | 0.619 µM | 2.17 µM | 5.86 µM | 1.47 µM | 7.11 µM | 0.589 µM | 83.6 µM | 1.52 µM | 5.76 µM | 2.5 µM | 9.04 µM | 0.443 µM | 3.95 µM | 0.718 µM | 2.58 µM | 1.3 µM | 2.38 µM |
| COC(=O)COc1ccc(/C=C2\N=C(c3ccccc3)N(c3cc(C(F)(F)F)ccc3Cl)C2=O)cc1 | 52.6 µM | > 100 µM | > 100 µM | > 100 µM | > 100 µM | > 100 µM | 48.4 µM | > 100 µM | 47.3 µM | > 100 µM | 27.1 µM | > 100 µM | > 100 µM | > 100 µM | > 100 µM | > 100 µM | 75.9 µM | > 100 µM | 52.2 µM | > 100 µM |
| COc1ccccc1C1=C2C(=O)N(C)C(c3ccccc3OC)=C2C(=O)N1C |  | > 100 µM | > 100 µM |  |  | > 100 µM |  | > 100 µM |  | > 100 µM |  | > 100 µM |  | > 100 µM |  | 85.5 µM |  | > 100 µM |  | > 100 µM |
